Common to all, as to test: biochemical
Type in all cases: binding

One assay addresses FLT3(D835V) (Homo sapiens, UniProt P36888, D835V). As to conditions: 1000 nM, read-out: Percent Control.
A further assay concerns the target PIK3CA(C420R) (Homo sapiens, UniProt P42336, C420R). To be noted: read-out: Percent Control.
In the next assay the target is PIK3CA(E545K) (Homo sapiens, UniProt P42336, E545K). As to conditions: read-out: Percent Control.

Among the data in article PMC12090182, “Repurposing of the RIPK1-Selective Benzo[1,4]oxazepin-4-one Scaffold for the Development of a Type III LIMK1/2 Inhibitor” (ACS Chemical Biology, 2025) are remaining activity values, retold here.

Sequence of PIK3CA(E545K) (P42336 whole entry E545K): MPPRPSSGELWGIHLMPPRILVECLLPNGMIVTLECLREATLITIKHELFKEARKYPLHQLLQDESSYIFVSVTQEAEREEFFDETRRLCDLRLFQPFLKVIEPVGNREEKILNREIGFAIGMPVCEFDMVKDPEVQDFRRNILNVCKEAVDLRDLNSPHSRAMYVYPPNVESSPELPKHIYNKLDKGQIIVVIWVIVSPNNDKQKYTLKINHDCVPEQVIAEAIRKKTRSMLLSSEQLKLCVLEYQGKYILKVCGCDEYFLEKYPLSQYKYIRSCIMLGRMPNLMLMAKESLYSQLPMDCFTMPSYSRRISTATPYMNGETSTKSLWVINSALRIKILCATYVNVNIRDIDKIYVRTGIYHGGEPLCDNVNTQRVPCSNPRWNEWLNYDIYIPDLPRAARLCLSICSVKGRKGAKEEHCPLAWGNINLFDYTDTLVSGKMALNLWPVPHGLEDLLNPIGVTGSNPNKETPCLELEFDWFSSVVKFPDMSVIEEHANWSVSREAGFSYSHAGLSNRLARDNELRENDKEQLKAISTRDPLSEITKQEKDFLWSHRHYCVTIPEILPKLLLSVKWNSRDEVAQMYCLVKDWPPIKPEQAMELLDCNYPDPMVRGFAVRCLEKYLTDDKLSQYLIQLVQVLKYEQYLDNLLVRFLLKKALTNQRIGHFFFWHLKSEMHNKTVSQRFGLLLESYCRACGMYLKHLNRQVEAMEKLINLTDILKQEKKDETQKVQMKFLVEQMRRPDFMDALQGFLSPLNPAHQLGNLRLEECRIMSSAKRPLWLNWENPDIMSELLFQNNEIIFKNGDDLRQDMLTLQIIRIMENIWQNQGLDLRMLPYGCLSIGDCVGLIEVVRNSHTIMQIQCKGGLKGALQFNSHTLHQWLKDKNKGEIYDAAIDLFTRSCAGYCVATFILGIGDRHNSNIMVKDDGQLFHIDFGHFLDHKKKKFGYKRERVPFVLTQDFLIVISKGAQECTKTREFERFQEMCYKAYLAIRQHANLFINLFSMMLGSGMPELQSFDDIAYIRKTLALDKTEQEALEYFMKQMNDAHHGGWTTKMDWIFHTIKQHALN
Sequence of PIK3CA(C420R) (P42336 whole entry C420R): as the sequence (P42336 whole entry E545K) above, with C420R, K545E counted along it

For the molecule `CN1C(=O)[C@@H](N2CCc3c(nn(Cc4ccccc4)c3C(N)=O)C2=O)COc2cc(Cl)ccc21` [Compound 10, (S)-2-benzyl-6-(8-chloro-5-methyl-4-oxo-2,3,4,5-tetrahydrobenzo[b][1,4]oxazepin-3-yl)-7-oxo-4,5,6,7-tetrahydro-2H-pyrazolo[3,4-c]pyridine-3-carboxamide], the remaining activity at 1 µM at FLT3(D835V) came to 56%; on PIK3CA(C420R), 92%; at PIK3CA(E545K) it was 97%.
